In patent US20120029187A1, “HALOALKYLSULFONANILIDE DERIVATIVE” (Nissan Chemical Industries, Ltd., priority 2009, published 2012):

Experiments:
Format in all cases: in vivo
[1] = tested on: Italian ryegrass; test: Test Example 3: herbicidal effects in soil treatment; details: dose 3.2 g/a
Method in brief: (§1)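 Seeds were sown in sterilized diluvial soil and covered with about 1.5 cm of soil. Compounds, formulated as emulsifiable concentrates and diluted with water, were sprayed evenly over the soil surface at set doses in g/a. Herbicidal effect was scored on a rating scale three weeks later.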

[2] = tested on: large crabgrass; test: as above; details: dose 3.2 g/a
Method in brief: as §1

[3] = tested on: posumbu knotweed; test: as above; details: dose 3.2 g/a
Method in brief: as §1

[4] = tested on: velvetleaf; test: as above; details: dose 3.2 g/a
Method in brief: as §1

[5] = tested on: common chickweed; test: as above; details: dose 3.2 g/a
Method in brief: as §1

[6] = tested on: water foxtail; test: as above; details: dose 3.2 g/a
Method in brief: as §1

[7] = tested on: barnyardgrass; test: as above; details: dose 3.2 g/a
Method in brief: as §1

[8] = tested on: redroot pigweed; test: as above; details: dose 3.2 g/a
Method in brief: as §1

[9] = tested on: giant foxtail; test: as above; details: dose 3.2 g/a
Method in brief: as §1

[10] = tested on: common lambsquater; test: as above; details: dose 3.2 g/a
Method in brief: as §1

[11] = tested on: common ragweed; test: as above; details: dose 3.2 g/a
Method in brief: as §1

[12] = tested on: transplanted rice; test: Test Example 1: preemergence treatment under submerged conditions, effect on crop; details: dose 2.52 g/a
Method in brief: (§2)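 Submerged conditions, 4 cm water over alluvial soil. Weeds sown and 2.5-leaf rice transplanted; compound applied preemergence to water surface, doses in g per are. Greenhouse, 25 to 30° C., three weeks, then 0–5 mortality rating.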

[13] = tested on: ducksalad; test: Test Example 2: herbicidal effects during the vegetation period under submerged conditions; details: treatment during the vegetation period under submerged conditions; dose 2.52 g/a
Method in brief: (§3)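 Barnyardgrass, bulrush and ducksalad were co-sown in alluvial soil flooded to 4 cm and grown in a greenhouse at 25 to 30° C. At the 1- or 2-leaf stage, water-diluted emulsifiable concentrates went onto the water surface at set doses (g/a). Herbicidal effect was scored three weeks later on a graded scale.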

[14] = tested on: barnyardgrass; test: as above; details: treatment during the vegetation period under submerged conditions; dose 2.52 g/a
Method in brief: as §3

[15] = tested on: bulrush; test: as above; details: treatment during the vegetation period under submerged conditions; dose 2.52 g/a
Method in brief: as §3

[16] = tested on: ducksalad; test: Test Example 1: herbicidal effects in preemergence treatment under submerged conditions; details: dose 2.52 g/a
Method in brief: as §2

[17] = tested on: barnyardgrass; test: as above; details: dose 2.52 g/a
Method in brief: as §2

[18] = tested on: bulrush; test: as above; details: dose 2.52 g/a
Method in brief: as §2

[19] = tested on: Italian ryegrass; test: Test Example 4: herbicidal effect in foliage treatment; details: dose 3.2 g/a, three weeks after application
Method in brief: (§4)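 Herbicidal effect was rated on an evaluation scale three weeks after treatment. Plants had been raised 14 days at 25 to 30° C in sterilized diluvial soil, then received foliar sprays of emulsifiable concentrate diluted in water at predetermined doses expressed as g per are.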

[20] = tested on: large crabgrass; test: as above; details: dose 3.2 g/a, three weeks after application
Method in brief: as §4

[21] = tested on: posumbu knotweed; test: as above; details: dose 3.2 g/a, three weeks after application
Method in brief: as §4

[22] = tested on: velvetleaf; test: as above; details: dose 3.2 g/a, three weeks after application
Method in brief: as §4

[23] = tested on: common chickweed; test: as above; details: dose 3.2 g/a, three weeks after application
Method in brief: as §4

[24] = tested on: water foxtail; test: as above; details: dose 3.2 g/a, three weeks after application
Method in brief: as §4

[25] = tested on: beadstraw; test: as above; details: dose 3.2 g/a, three weeks after application
Method in brief: as §4

[26] = tested on: barnyardgrass; test: as above; details: dose 3.2 g/a, three weeks after application
Method in brief: as §4

[27] = tested on: redroot pigweed; test: as above; details: dose 3.2 g/a, three weeks after application
Method in brief: as §4

[28] = tested on: giant foxtail; test: as above; details: dose 3.2 g/a, three weeks after application
Method in brief: as §4

[29] = tested on: common lambsquater; test: as above; details: dose 3.2 g/a, three weeks after application
Method in brief: as §4

[30] = tested on: common ragweed; test: as above; details: dose 3.2 g/a, three weeks after application
Method in brief: as §4

SMILES | H: Italian ryegrass, herbicidal effect (evaluation scale 0-5) [1] | D: large crabgrass, herbicidal effect (evaluation scale 0-5) [2] | M: posumbu knotweed, herbicidal effect (evaluation scale 0-5) [3] | I: velvetleaf, herbicidal effect (evaluation scale 0-5) [4] | N: common chickweed, herbicidal effect (evaluation scale 0-5) [5] | G: water foxtail, herbicidal effect (evaluation scale 0-5) [6] | A: barnyardgrass, herbicidal effect (evaluation scale 0-5) [7] | K: redroot pigweed, herbicidal effect (evaluation scale 0-5) [8] | E: giant foxtail, herbicidal effect (evaluation scale 0-5) [9] | L: common lambsquater, herbicidal effect (evaluation scale 0-5) [10] | J: common ragweed, herbicidal effect (evaluation scale 0-5) [11] | a: transplanted rice, effect on crop (evaluation scale 0-5) [12] | C: ducksalad, herbicidal effect (evaluation scale 0-5) [13] | A: barnyardgrass, herbicidal effect (evaluation scale 0-5) [14] | B: bulrush, herbicidal effect (evaluation scale 0-5) [15] | C: ducksalad, herbicidal effect (evaluation scale 0-5) [16] | A: barnyardgrass, herbicidal effect (evaluation scale 0-5) [17] | B: bulrush, herbicidal effect (evaluation scale 0-5) [18] | H: Italian ryegrass, herbicidal effect [19] | D: large crabgrass, herbicidal effect [20] | further results
CCC1(C)CC(=O)N(Cc2ccccc2N(C(=O)OCC(C)C)S(=O)(=O)C(F)(F)F)CO1 (stereo not drawn) [II-43] | 5 (mortality of 90% or above (nearly complete death)) | 3 (mortality of at least 40% and less than 70%) | 4 (mortality of at least 70% and less than 90%) | 5 (mortality of 90% or above (nearly complete death)) | 5 (mortality of 90% or above (nearly complete death)) | 5 (mortality of 90% or above (nearly complete death)) | 4 (mortality of at least 70% and less than 90%) | 2 (mortality of at least 20% and less than 40%) | 2 (mortality of at least 20% and less than 40%) | 5 (mortality of 90% or above (nearly complete death)) | 3 (mortality of at least 40% and less than 70%) | 0 (mortality of less than 5% (almost ineffective)) | 5 (mortality of 90% or above (nearly complete death)) | 5 (mortality of 90% or above (nearly complete death)) | 5 (mortality of 90% or above (nearly complete death)) | 5 (mortality of 90% or above (nearly complete death)) | 5 (mortality of 90% or above (nearly complete death)) | 5 (mortality of 90% or above (nearly complete death)) | 4 (mortality of at least 70% and less than 90%) | 1 (mortality of at least 5% and less than 20%) | M: posumbu knotweed, herbicidal effect [21]: 0 (mortality of less than 5% (almost ineffective)); I: velvetleaf, herbicidal effect [22]: 5 (mortality of 90% or above (nearly complete death)); N: common chickweed, herbicidal effect [23]: 3 (mortality of at least 40% and less than 70%); G: water foxtail, herbicidal effect [24]: 5 (mortality of 90% or above (nearly complete death)); O: beadstraw, herbicidal effect [25]: 4 (mortality of at least 70% and less than 90%); A: barnyardgrass, herbicidal effect [26]: 5 (mortality of 90% or above (nearly complete death)); K: redroot pigweed, herbicidal effect [27]: 0 (mortality of less than 5% (almost ineffective)); E: giant foxtail, herbicidal effect [28]: 4 (mortality of at least 70% and less than 90%); L: common lambsquater, herbicidal effect [29]: 2 (mortality of at least 20% and less than 40%); J: common ragweed, herbicidal effect [30]: 3 (mortality of at least 40% and less than 70%)
CC1(C(F)(F)F)CC(=O)N(Cc2ccccc2NS(=O)(=O)C(F)(F)F)CO1 (stereo not drawn) [II-46] | 3 (mortality of at least 40% and less than 70%) | 5 (mortality of 90% or above (nearly complete death)) | 3 (mortality of at least 40% and less than 70%) | 3 (mortality of at least 40% and less than 70%) | 4 (mortality of at least 70% and less than 90%) | 5 (mortality of 90% or above (nearly complete death)) | 5 (mortality of 90% or above (nearly complete death)) | 0 (mortality of less than 5% (almost ineffective)) | 5 (mortality of 90% or above (nearly complete death)) | 4 (mortality of at least 70% and less than 90%) | 4 (mortality of at least 70% and less than 90%) | 0 (mortality of less than 5% (almost ineffective)) | 5 (mortality of 90% or above (nearly complete death)) | 4 (mortality of at least 70% and less than 90%) | 5 (mortality of 90% or above (nearly complete death)) | 5 (mortality of 90% or above (nearly complete death)) | 4 (mortality of at least 70% and less than 90%) | 5 (mortality of 90% or above (nearly complete death)) | 0 (mortality of less than 5% (almost ineffective)) | 4 (mortality of at least 70% and less than 90%) | M: posumbu knotweed, herbicidal effect [21]: 2 (mortality of at least 20% and less than 40%); I: velvetleaf, herbicidal effect [22]: 1 (mortality of at least 5% and less than 20%); N: common chickweed, herbicidal effect [23]: 4 (mortality of at least 70% and less than 90%); G: water foxtail, herbicidal effect [24]: 2 (mortality of at least 20% and less than 40%); O: beadstraw, herbicidal effect [25]: 4 (mortality of at least 70% and less than 90%); A: barnyardgrass, herbicidal effect [26]: 4 (mortality of at least 70% and less than 90%); K: redroot pigweed, herbicidal effect [27]: 0 (mortality of less than 5% (almost ineffective)); E: giant foxtail, herbicidal effect [28]: 4 (mortality of at least 70% and less than 90%); L: common lambsquater, herbicidal effect [29]: 2 (mortality of at least 20% and less than 40%); J: common ragweed, herbicidal effect [30]: 3 (mortality of at least 40% and less than 70%)
